# According to PMC10661964 (Current Drug Metabolism, 2023):
# Where two headings read alike, the source gives them in different places.
# Legend:
# Format in all cases: in vitro ADME
# MATE2K = biological target: T1, MATE2K (Homo sapiens, UniProt Q86VL8); assay: MATE2K transport assay in overexpressing HEK293 cells; conditions: probe substrate metformin 90 µM
# T1 construct: expressed in transfected cells; host or cells: HEK293, stably transfected
# Protocol: (§1) The inhibition of cytochrome P450 (CYP) isoforms and a range of cellular transporters (except multidrug and toxin extrusion [MATE] proteins), as well as the induction of CYP isoforms were investigated using previously described methods.
# Supplementary Material Current Drug Metabolism, 2023, Vol. 24, No. 8 iii […]
# -, not determined; BCRP, breast cancer resistance protein; P-gp, P-glycoprotein; MATE, multidrug and toxin extrusion. aThe highest test concentration of 20 µM was not valid in this assay for technical reasons.
# OAT, organic anion transporter; OATP, organic anion transporting polypeptide; OCT, organic cation transporters.
# After thawing from frozen storage, aliquots of approximately 3 x 10^6 cells of human embryonic kidney (HEK293) cell line stable overex-pressing MATE1 or MATE2K were transferred to cell culture dishes containing 10 mL of DMEM-medium (supplemented with 10% FBS, 1% penicillin [10.000 U/mL]/streptomycin [10 mg/mL] and hygromycin B [150 µg/mL]) at 37°C. Transporter-transfected and vector-transfected HEK cells were grown on cell culture dishes at 37°C in a humidified 5% CO 2 atmosphere. All cell lines were confirmed free from mycoplasma by routine testing with conventional PCR. Cell cultures were split when they had grown to confluency. For passaging, cells were washed with PBS, exposed to trypsin-EDTA for 5 min at room temperature, collected by centrifugation, resuspended in culture medium and […]
# MATE1 and MATE2K Transport Assays
# Transporter-transfected and vector-transfected cells were prepared for use in uptake assays by harvesting and plating into 24-well-plates pre-coated with poly-D-lysine hydrobromide at a density of 2 x 10^5 cells/well and then cultured for 3 days in DMEM growth medium (high glucose, 10% FBS, 1% penicillin/streptomycin). For uptake assays, the growth medium was aspirated and each plate well was rinsed twice with HBSS supplemented with 20 mM HEPES, pH 7.4. The intracellular environment was acidified by preincubation in 30 mM NH4Cl in buffer pH 7.4 at 37°C for 30 min. […]
# CYP 3A4 = CYP 3A4 (Homo sapiens, UniProt P08684); assay: CYP inhibition with probe substrates
# Description: as §1
# [1] = Unbound fraction (fu) in human plasma
# OATP1B3 = biological target: T2, OATP1B3 (Homo sapiens, UniProt Q9NPD5); assay: Uptake transporter inhibition; conditions: probe substrate pravastatin
# T2 sequence (Q9NPD5 1-702): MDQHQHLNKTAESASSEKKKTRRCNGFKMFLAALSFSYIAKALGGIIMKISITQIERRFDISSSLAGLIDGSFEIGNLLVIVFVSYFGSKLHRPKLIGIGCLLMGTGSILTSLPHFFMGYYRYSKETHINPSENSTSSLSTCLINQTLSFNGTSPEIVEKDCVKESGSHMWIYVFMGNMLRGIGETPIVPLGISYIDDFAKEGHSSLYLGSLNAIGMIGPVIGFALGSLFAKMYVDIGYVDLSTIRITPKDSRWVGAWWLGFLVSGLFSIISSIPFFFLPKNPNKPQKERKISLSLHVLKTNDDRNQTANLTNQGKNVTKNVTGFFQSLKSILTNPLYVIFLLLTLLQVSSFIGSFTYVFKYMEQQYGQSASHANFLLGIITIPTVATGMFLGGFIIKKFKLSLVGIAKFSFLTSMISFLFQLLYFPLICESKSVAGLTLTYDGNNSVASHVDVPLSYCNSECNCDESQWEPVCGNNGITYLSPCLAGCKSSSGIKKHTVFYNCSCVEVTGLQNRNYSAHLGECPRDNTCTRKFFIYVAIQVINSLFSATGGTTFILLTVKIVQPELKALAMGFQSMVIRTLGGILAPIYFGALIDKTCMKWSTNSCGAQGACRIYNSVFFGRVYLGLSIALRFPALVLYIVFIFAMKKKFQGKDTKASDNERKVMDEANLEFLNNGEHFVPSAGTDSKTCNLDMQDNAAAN
# Description: as §1
# OATP1B1 = biological target: T3, OATP1B1 (Homo sapiens, UniProt Q9Y6L6); assay: Uptake transporter inhibition; conditions: probe substrate pravastatin
# T3 sequence (Q9Y6L6 1-691): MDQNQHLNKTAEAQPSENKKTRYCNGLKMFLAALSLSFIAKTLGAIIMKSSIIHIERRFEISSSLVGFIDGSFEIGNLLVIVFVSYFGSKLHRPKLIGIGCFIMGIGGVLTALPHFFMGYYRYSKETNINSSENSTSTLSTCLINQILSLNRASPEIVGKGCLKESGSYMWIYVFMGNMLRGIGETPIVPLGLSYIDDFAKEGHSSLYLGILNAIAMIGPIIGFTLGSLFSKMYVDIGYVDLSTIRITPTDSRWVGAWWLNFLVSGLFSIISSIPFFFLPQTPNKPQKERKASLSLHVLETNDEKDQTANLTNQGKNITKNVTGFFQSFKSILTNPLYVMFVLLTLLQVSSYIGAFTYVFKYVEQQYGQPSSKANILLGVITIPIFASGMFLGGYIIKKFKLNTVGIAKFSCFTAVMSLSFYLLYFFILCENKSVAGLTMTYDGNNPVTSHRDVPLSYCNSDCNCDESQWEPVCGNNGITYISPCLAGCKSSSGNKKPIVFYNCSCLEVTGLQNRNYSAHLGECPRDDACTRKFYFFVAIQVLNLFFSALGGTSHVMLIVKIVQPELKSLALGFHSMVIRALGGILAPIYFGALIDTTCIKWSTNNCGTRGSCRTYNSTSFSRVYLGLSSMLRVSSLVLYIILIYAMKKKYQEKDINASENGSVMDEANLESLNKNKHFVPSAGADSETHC
# Description: as §1
# [2] = 3A4 (M), 30-min preincubation, probe substrate midazolam, read-out: Pre- IC50 (+ NADPH)
# [3] = 3A4 (M), coincubation, probe substrate midazolam, read-out: Co- IC50
# [4] = 3A4 (M), probe substrate midazolam
# [5] = 3A4 (T), 30-min preincubation, probe substrate testosterone, read-out: Pre- IC50 (+ NADPH)
# [6] = 3A4 (T), coincubation, probe substrate testosterone, read-out: Co- IC50
# [7] = 3A4 (T), probe substrate testosterone
# CYP 3A4, sequence (P08684 whole entry): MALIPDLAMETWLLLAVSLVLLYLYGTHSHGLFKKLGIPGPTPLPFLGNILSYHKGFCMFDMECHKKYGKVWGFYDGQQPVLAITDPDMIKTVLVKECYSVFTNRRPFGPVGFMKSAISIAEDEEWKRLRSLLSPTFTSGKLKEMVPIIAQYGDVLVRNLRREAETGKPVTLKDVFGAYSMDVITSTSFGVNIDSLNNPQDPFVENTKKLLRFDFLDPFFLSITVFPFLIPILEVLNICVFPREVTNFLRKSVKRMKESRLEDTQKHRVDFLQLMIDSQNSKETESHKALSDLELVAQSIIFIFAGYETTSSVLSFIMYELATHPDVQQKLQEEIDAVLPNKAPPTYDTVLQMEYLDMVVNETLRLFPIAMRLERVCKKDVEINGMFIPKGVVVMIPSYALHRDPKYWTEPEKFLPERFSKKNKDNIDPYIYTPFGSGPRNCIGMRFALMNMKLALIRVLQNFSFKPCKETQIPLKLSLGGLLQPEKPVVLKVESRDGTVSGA
# T1 sequence (Q86VL8 1-566 isoform Q86VL8-3): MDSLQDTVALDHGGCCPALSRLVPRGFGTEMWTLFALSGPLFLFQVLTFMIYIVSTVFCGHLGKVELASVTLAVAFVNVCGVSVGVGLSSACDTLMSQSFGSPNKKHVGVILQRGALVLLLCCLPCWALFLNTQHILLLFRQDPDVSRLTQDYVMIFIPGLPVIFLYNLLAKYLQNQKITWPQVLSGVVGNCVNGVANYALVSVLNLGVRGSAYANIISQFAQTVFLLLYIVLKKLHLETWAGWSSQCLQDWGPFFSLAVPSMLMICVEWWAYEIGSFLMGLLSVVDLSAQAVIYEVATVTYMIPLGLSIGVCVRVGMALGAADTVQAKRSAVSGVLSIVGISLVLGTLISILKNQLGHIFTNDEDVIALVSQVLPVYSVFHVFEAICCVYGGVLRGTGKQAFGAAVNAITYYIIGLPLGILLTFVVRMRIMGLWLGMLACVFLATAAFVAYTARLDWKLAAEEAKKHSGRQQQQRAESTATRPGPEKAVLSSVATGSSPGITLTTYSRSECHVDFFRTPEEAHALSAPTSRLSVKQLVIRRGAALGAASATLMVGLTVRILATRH
SMILES,IC50 (MATE2K) [µM],IC50 (CYP 3A4; [2]) [M],IC50 (CYP 3A4; [3]) [M],TDI (time-dependent inhibition) (CYP 3A4; [4]),IC50 (CYP 3A4; [5]) [M],IC50 (CYP 3A4; [6]) [M],TDI (time-dependent inhibition) (CYP 3A4; [7]),fraction unbound [1],IC50 (OATP1B3) [µM],IC50 (OATP1B1) [µM]
CC1CS(=O)(=O)CCN1n1cc(SCC(N)C(=O)O)ccc1=O (stereo not drawn) [M-4],> 5,> 2e-05,> 2e-05,No,> 2e-05,> 2e-05,No,1,10,> 20
CC1CS(=O)(=O)CCN1N (stereo not drawn) [M-6],> 30,> 0.0001,> 0.0001,No,> 0.0001,> 0.0001,No,1,> 50,> 50
"CC1CS(=O)(=O)CCN1/N=C/c1ccc([N+](=O)[O-])o1 (stereo not drawn) [Nifurtimox, (E)-N-(3-methyl-1,1-dioxo-1,4-thiazinan-4-yl)-1-(5-nitrofuran-2-yl) methanimine, reference compound]",> 20,4.8e-05 to 4.9e-05,> 5e-05,No,> 5e-05,> 5e-05,No,0.576,> 50,> 50
